Assay results as given in PMC3124791 (2011).

Biological target: BACE-1 (β-secretase) (Homo sapiens, UniProt P56817)
Assay: cell-free chemoluminescent BACE-1 activity assay
Format: biochemical

BACE-1 (β-secretase), sequence (P56817 46-457): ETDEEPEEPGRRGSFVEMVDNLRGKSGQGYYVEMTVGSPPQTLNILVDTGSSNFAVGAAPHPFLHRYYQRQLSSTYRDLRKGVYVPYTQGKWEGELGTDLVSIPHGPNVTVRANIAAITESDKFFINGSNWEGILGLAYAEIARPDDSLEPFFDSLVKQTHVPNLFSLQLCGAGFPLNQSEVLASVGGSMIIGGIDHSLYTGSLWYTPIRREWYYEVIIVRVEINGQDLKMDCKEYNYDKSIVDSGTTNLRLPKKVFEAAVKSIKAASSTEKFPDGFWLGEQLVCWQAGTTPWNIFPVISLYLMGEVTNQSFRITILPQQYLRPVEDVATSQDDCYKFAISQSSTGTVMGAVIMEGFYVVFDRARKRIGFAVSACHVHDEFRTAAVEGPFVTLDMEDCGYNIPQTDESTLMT

Structure (SMILES)	IC50 [µM]
O=c1cc(-c2ccc(O)cc2)oc2cc(O)cc(O)c12 [apigenin, 4',5,7-Trihydroxyflavone]	34.2
O=c1c(O)c(-c2ccc(O)cc2)oc2cc(O)cc(O)c12 [kaempferol, 3,5,7-Trihydroxy-2-(4-hydroxyphenyl)-4H-1-benzopyran-4-one]	27.7
